Experimental data: PMC8851282, “Senolysis induced by 25-hydroxycholesterol targets CRYAB in multiple cell types” (iScience, 2022)

Tests used:
gastrocnemius muscle = conditions: ip, 50 mg/kg, 120 h
FAPs = test: Cell viability assay (cell counting kit-8) of senescent and non-senescent FAPs treated with inhibitors; assay type: cell-based, mouse; conditions: for IC50: Mus musculus, FAPs
Description: Figure 3 25HC is a senolytic in multiple muscle cell types (A) Targets, compounds, and mechanisms. (B) Timeline of cell viability assay with inhibitors. Cells were pre-cultured for 24 h, treated with Doxo for 24 h, and then treated with inhibitors. Cell viability was analyzed from day 0–7. (C–E) Effects of inhibitors on viability of FAPs, SCs, and HSMMs. Cells were treated with inhibitors at the indicated concentrations. Cell viability was analyzed on day 3 (HSMMs) or 5 (FAPs and SCs). Blue and red dots indicate non-senescent (NS) and senescent (SEN), respectively. The average value at 0 μM for each group was set at 100% cell viability. p values versus NS were obtained using unpaired two-tailed Student’s t test. ∗p < 0.05, ∗∗p < 0.01, and ∗∗∗p < 0.001.
Figure 4 EC50 fitted curves (triplicates) of inhibitor effects at 3 and 7 days in FAPS and SCs EC50 was defined as the concentration of inhibitors that provokes a response halfway between baseline and maximum senolytic activity. EC50 values were determined by four- parameter logistic modeling using GraphPad Prism 8.0.
Hind limb muscles were digested in DMEM containing 0.5% (w/v) collagenase type II (Worthington) for 90 min at 37 °C with trituration and passed through a 40-μm nylon mesh. Erythrocytes were eliminated by treating with BD Pharm Lyse (BD Biosciences). Cells were resuspended in a washing buffer of PBS with 2% FBS and stained with antibodies for 30 min at 4 °C as described ([Kamizaki et al., 2017]). FAPs and SCs were isolated from the suspension by FACS (Aria II, BD Biosciences) using anti-CD31, CD45, Sca-1, PDGFR and VCAM1 antibodies. FAPs were identified as Sca1/PDGFR-positive and CD31-, CD45- and VCAM1-negative cells ([Uezumi et al., 2010]). SCs were identified as VCAM1-positive and CD31-, CD45-, Sca-1 and PDGFR-negative cells ([Liu et al., 2015]).
All experiments were performed in incubators at 37 °C, 3% O2 and 5% CO2. Senescence was induced by treatment with either Doxo (250 nM for 24 h) ([Demaria et al., 2017]) or X-irradiation (10 Gy) ([Limbad et al., 2020]). For cell culture studies using 25HC, it was used at the indicated concentrations in the media.
FAPs and SCs were cultured on Matrigel-coated dishes (BD Biosciences) in growth medium (GM) consisting of DMEM plus 10% FBS, 1% penicillin-streptomycin and 10% MyoCult (STEMCELL Technologies) for 7 days. Human myogenic cell HSMMs (Lonza) were maintained according to the manufacturer’s instructions with SkGM-2 medium (Lonza).
Cell viability was assessed using a cell counting kit-8 from Dojindo Molecular Technologies, Inc (Cat CK04-20). Cells were incubated with culture media + 10% kit cell viability reagent, 150 μL/well in 96-well plates for 2 h. The supernatant was transferred to a new 96-well plate and absorbance read at 450 nm as recommended in the product datasheet.

[1] = system: Cdkn1a mRNA and SASP factors in skeletal muscle; test: qRT-PCR of senescence markers, Cryab and SASP factors in skeletal muscles of aged mice given 25HC; assay type: in vivo, mouse
[2] = system: human renal proximal tubule epithelial cells (hRPTECs); test: Cell viability assay of NS and Doxo- or IR-induced senescent hRPTECs treated with 25HC; assay type: cell-based; conditions: 5 μM after 9 days; Doxo or IR induced senescence
Description: Figure 7 25HC treatment timeline and its effects on NS and SEN hCMECs, hLSCs, hRPTECs, and hACs All cell types were treated with either DMSO, 250 nM Doxo or 10-Gy IR at the times shown. 25HC treatment was started 24 h after Doxo or IR treatment. Cell viability was measured every 3–5 days for 15 days. Optimal treatment times for maximum senolysis are shown for each cell type: day 15 for hCMECs, day 3 for hLSCs, day 9 for hRPTECs and day 12 for hACs. For qRT-PCR: mean ± SE, n =4, ∗p< 0.05, ∗∗p< 0.01, ∗∗∗p<0.001, ∗∗∗∗p<0.0001 by Dunnett’s multiple comparisons test vs DMSO or NS, For cell viability assays: mean ± SE, n =3, ∗∗p< 0.01, ∗∗∗p<0.001, ∗∗∗∗p<0.0001 vs 0 mM by student’s t test.
All experiments were performed in incubators at 37 °C, 3% O2 and 5% CO2. […]
Cell viability was assessed using a cell counting kit-8 from Dojindo Molecular Technologies, Inc (Cat CK04-20). […] The supernatant was transferred to a new 96-well plate and absorbance read at 450 nm as recommended in the product datasheet. […]
Supplementary Fig. 12 (related to Fig. 7) | 25HC treatment of human renal epithelial cells (a) 25HC effects on DMSO- or Doxo-treated hRPTECs at various times. […] Cel l vi abi l i ty was measured every 3–5 days until 15 days. […]
Cells were NS or treated with 10-Gy X-rays. […] Cell viability was measured every 3–5 days until 15 days. […]

## C[C@H](CCCC(C)(C)O)[C@H]1CC[C@H]2[C@@H]3CC=C4C[C@@H](O)CC[C@]4(C)[C@H]3CC[C@]12C [25HC, 25-hydroxycholesterol]
Gastrocnemius muscle
  muscle mass restored (gastrocnemius wet weight normalized to body weight): ~23%
FAPs; Doxo-induced senescence, viability on day 5, 25HC at concentrations between 0.1 and 1 μM
  viability of senescent versus non-senescent FAPs: specifically decreased the viability of senescent FAPs
FAPs; 72 h, 3 days in culture
  IC50: 1700 nM
FAPs; 168 h, 7 days in culture
  IC50: 1200 nM
[1]; 24–26-month-old mice, both genders, 25HC 50 mg/kg i.p. for 5 days
  Cdkn1a mRNA induction by aging in gastrocnemius and soleus muscles: significantly reduced
[1]; mice treated with 25HC (Figures S17 and S18)
  expression of SASP factors, including IL6, in skeletal muscle: substantially inhibited
[2]
  senolysis in hRPTECs: induced significant senolysis
